This note sets out measurements from US11912668B2, “GCN2 and perk kinase inhibitors and methods of use thereof” (Deciphera Pharmaceuticals, LLC, priority 2020, dated 2024).

Assay [1] has as its target GCN2 kinase (Homo sapiens (Human), UniProt Q9P2K8). Kind of assay: Biochemical assay for GCN2 (TR-FRET kinase activity assay). Particulars: 1 mM ATP, 3-hour incubation. The procedure, abridged:
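TR-FRET assay with 2 nM GCN2, 130 nM GFP-eIF2α substrate, 0.2 mg/mL E. coli tRNA and 1 mM ATP; compounds (0.5% DMSO) reacted 3 h. Stopped with 20 mM EDTA plus 2 nM Tb-anti-peIF2α (pSer52), 60 min RT; 520/490 ratio converted to % inhibition, IC50 from four-parameter fit.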

Assay [2] concerns ATF4 in H929 multiple myeloma cells. Kind of assay: H929 ATF4 ELISA assay (stimulation of cellular ATF4). The class given is cell-based. Particulars: 4 h, no thapsigargin. The method, then: H929 multiple myeloma cells (catalog #CRL-9068) were obtained from the American Type Culture Collection (ATTC, Manassas, VA). Briefly, cells were grown in RPMI-1640 medium supplemented with 20% heat-inactivated fetal bovine serum (catalog #A3840002, ThermoFisher Scientific, Waltham, MA), 1% Penicillin/Streptomycin/L-Glutamine (catalog #10378016, ThermoFisher Scientific, Waltham, MA), and 0.05 mM 2-mercaptoethanol (catalog #21985-023, ThermoFisher Scientific, Waltham, MA) at 37° C., 5% CO2, and 95% humidity. Cells were expanded until reaching one million five hundred thousand cells per mL at which time they were subcultured or harvested for assay use. One million five hundred thousand cells per well in 1 mL complete growth medium were dispensed into 12-well plates and incubated overnight. A serial dilution of test compound was added, and cells were incubated at 37° C., 5% CO2, and 95% for four hours. Cells were lysed then ATF4 levels were measured using an ELISA assay (Proteintech, Rosemont, IL). Absorbance is measured at 450 nm and 544 nM using a Synergy2 or equivalent reader (Biotek, Winooski VT). Data were analyzed using PRISM software (Graphpad, San Diego, CA) to calculate fold stimulation of cellular ATF4 relative to vehicle treated control.

Assay [3] addresses PERK kinase (Homo sapiens (Human), UniProt Q9NZJ5). Kind of assay: Biochemical assay for PERK (coupled pyruvate kinase/lactate dehydrogenase assay). Particulars: 1 mM ATP, rate from 2-3 h time frame. The procedure, abridged: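 Coupled pyruvate kinase/lactate dehydrogenase readout of ATP hydrolysis via NADH oxidation (A340), 10 nM PERK, 0.25 mg/mL myelin basic protein, 1 mM ATP, pH 7.5 Tris/MgCl2 buffer, 1% DMSO. Absorbance followed 6 h at 30° C; rate from the 2-3 h window, normalised to no-compound and known-inhibitor controls, IC50 fitted.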

For assay [4], the system named is CCRF-CEM leukemia cells. Kind of assay: CCRF-CEM ASNase cell proliferation assay, phenotypic assay for cellular inhibition of GCN2. The class given is cell-based. Particulars: Homo sapiens; ASNase treated CCRF-CEM cells, 1 mU/mL ASNase, 72 h. The procedure, abridged:
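Cells were seeded at ten thousand per well in RPMI-1640 with 10% heat-inactivated FBS and treated in triplicate with serially diluted compound plus 1 mU/mL ASNase for 72 h at 37 °C, 5% CO2. Resazurin was then added for 6 h, with fluorescence read at ex 540/em 600 nm to derive IC50 values.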

Assay [5] deals with ATF4 in CCRF-CEM leukemia cells (PERK). Kind of assay: CCRF-CEM TG ATF4 ELISA, phenotypic assay for cellular inhibition of PERK preactivated by thapsigargin. The class given is cell-based. Particulars: Homo sapiens; Thapsigargin (1 μM) stimulated CCRF-CEM cells.
Assay [6] has as its system ATF4 in HCT116 colorectal cancer cells. Description: HCT116 amino acid starved (-AA) ATF4 assay (Western blot). The class given is cell-based. Particulars: Homo sapiens, HCT-116, 4 h. In a few lines:
(§1)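 HCT116 cells switched to amino-acid-free EBSS (10% dialyzed FBS, 5.5 mM glucose, vitamins) with serial compound dilutions for 4 h at 37° C. Lysates Western blotted for phospho-GCN2 (Thr899), total GCN2, ATF4 and beta-actin; IC50 values derived from quantified bands.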

The test system of assay [7] is phospho-GCN2 (Thr899) in HCT116 colorectal cancer cells. Description: HCT116 amino acid starved (-AA) phospho-GCN2 assay (Western blot). The class given is cell-based. Particulars: Homo sapiens, HCT-116, 4 h, read-out: HCT116-AA pGCN2 Western Blot. In a few lines:
as §1

Chain of PERK kinase (Q9NZJ5 other isoform, or with tags, fused parts or gaps): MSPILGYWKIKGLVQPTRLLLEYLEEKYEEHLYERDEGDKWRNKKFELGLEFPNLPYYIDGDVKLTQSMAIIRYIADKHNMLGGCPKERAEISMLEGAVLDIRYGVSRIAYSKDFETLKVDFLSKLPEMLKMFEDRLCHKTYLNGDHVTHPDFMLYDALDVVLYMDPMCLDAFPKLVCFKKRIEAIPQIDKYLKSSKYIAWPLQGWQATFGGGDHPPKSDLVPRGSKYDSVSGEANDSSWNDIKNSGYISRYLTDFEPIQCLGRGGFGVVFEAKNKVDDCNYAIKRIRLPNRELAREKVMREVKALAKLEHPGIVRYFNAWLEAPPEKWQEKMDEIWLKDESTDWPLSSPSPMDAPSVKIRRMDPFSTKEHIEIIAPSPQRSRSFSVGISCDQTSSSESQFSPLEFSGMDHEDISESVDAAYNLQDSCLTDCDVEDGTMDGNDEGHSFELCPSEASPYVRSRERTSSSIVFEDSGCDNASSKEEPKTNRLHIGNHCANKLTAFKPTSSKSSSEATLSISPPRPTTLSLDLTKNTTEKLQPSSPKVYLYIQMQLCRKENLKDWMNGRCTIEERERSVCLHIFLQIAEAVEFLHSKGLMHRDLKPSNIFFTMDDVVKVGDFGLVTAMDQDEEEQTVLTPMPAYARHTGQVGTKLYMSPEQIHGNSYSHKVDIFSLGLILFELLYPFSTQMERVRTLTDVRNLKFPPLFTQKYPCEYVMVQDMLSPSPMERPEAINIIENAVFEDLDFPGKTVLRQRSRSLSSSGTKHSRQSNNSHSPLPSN
Chain of GCN2 kinase (Q9P2K8 whole entry): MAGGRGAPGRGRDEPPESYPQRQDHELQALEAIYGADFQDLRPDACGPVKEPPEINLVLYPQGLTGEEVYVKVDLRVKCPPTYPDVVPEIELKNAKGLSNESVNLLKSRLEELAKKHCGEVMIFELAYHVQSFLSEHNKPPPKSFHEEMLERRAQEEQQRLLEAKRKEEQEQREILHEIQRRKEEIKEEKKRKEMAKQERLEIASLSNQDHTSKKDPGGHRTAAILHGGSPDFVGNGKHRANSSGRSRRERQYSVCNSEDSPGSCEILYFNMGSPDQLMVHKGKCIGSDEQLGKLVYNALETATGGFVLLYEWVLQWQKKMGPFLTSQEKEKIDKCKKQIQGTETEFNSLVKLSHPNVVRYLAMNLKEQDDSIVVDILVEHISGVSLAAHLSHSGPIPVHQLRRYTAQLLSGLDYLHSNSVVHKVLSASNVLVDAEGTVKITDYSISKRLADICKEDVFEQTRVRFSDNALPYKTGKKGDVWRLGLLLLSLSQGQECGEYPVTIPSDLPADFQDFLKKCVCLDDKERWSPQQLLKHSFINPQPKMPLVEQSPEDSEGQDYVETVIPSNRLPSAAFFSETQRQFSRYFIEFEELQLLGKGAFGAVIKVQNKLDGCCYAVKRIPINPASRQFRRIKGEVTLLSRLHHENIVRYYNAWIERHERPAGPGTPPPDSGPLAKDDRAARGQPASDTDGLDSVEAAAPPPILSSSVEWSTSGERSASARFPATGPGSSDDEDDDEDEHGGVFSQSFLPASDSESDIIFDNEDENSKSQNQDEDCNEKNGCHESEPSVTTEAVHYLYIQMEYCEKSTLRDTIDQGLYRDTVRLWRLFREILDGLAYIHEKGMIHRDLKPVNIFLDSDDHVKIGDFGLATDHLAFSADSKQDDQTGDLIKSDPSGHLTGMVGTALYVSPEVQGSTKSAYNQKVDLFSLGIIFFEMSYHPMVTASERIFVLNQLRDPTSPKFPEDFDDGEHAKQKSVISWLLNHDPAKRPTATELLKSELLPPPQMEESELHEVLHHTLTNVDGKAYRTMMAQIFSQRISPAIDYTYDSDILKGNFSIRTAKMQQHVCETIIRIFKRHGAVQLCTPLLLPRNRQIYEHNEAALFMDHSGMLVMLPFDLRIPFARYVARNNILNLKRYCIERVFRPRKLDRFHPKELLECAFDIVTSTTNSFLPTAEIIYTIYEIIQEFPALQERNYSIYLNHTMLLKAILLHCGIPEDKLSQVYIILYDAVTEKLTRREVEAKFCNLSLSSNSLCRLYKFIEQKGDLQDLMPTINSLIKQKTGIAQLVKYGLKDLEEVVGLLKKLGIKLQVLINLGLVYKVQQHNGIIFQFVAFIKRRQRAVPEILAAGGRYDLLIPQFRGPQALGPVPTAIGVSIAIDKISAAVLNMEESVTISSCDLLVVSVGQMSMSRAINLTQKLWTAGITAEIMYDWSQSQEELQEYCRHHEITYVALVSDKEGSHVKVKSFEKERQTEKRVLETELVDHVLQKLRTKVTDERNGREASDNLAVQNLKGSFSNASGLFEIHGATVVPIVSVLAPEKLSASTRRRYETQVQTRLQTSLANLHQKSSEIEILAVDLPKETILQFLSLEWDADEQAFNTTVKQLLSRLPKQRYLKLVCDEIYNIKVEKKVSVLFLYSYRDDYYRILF

Take `CNc1ncc2cc(-c3cccc(NS(=O)(=O)c4cc(Cl)cnc4OC)c3C(F)(F)F)ccc2n1` [Example 79]: the IC50 in assay [1] and in assay [3] was 100 to 500 nM each time. Moreover, the “H929 NS ATF4 ELISA (fold stimulation of ATF4 relative to vehicle)” value in assay [2] is “+++ (“+++” refers to an ATF4 stim greater than 10 fold and less than or equal to 20 fold)”.

With `CNc1cc2nc(C)c(-c3cc(F)cc(NS(=O)(=O)c4cc(Cl)cc(CO)c4Cl)c3)cc2cn1` [Example 25], the IC50 was at most 100 nM in assay [4]; 1000 to 10000 nM in assay [5]; at most 100 nM in assay [6]; at most 100 nM in assay [7]; at most 100 nM in assay [1]; at most 100 nM in assay [3]. The “H929 NS ATF4 ELISA (fold stimulation of ATF4 relative to vehicle)” value in assay [2] was “++ (“++” refers to an ATF4 stim greater than 5 fold and less than or equal to 10 fold)”.

On to `CNc1ncc2cc(-c3cc(NS(=O)(=O)c4cc(Cl)cnc4OC)cc(F)c3F)c(NC)nc2n1` [Example 49], for which the IC50 was at most 100 nM in assay [4]; 1000 to 10000 nM in assay [5]; 100 to 500 nM in assay [6]; at most 100 nM in assay [7]; at most 100 nM in assay [1]; 100 to 500 nM in assay [3]. Also, the “H929 NS ATF4 ELISA (fold stimulation of ATF4 relative to vehicle)” value in assay [2] is “+ (“+” refers to an ATF4 stim less than or equal to 5-fold)”.

On to `COc1ncc(Cl)cc1S(=O)(=O)Nc1cc(F)cc(-c2cnc3nc(N)ncc3c2)c1` [Example 86], for which the IC50 in assay [1] and in assay [3] was 1000 to 10000 nM throughout. Besides, the “H929 NS ATF4 ELISA (fold stimulation of ATF4 relative to vehicle)” value in assay [2] was “+++ (“+++” refers to an ATF4 stim greater than 10 fold and less than or equal to 20 fold)”.

On to `Cc1nc2cc(N)ncc2cc1-c1cccc(NS(=O)(=O)c2cc(Cl)cc(CO)c2Cl)c1F` [Example 174], for which the IC50 in assay [4] and in assay [5] was at most 100 nM throughout. Also, in assay [2], the “H929 NS ATF4 ELISA (fold stimulation of ATF4 relative to vehicle)” value was “+++ (“+++” refers to an ATF4 stim greater than 10 fold and less than or equal to 20 fold)”.

On to `CNc1cc2nc(C)c(-c3cccc(NS(=O)(=O)c4cc(Cl)cnc4OC)c3F)cc2cn1` [Example 31], for which the IC50 in assay [4] was at most 100 nM; in assay [5] it was 1000 to 10000 nM; in assay [6], at most 100 nM; in assay [7] it was at most 100 nM; in assay [1] it was at most 100 nM; in assay [3] it was at most 100 nM. Besides, the “H929 NS ATF4 ELISA (fold stimulation of ATF4 relative to vehicle)” value in assay [2] was “++ (“++” refers to an ATF4 stim greater than 5 fold and less than or equal to 10 fold)”.

For `CNc1nc2nc(N)ncc2cc1-c1cccc(NS(=O)(=O)c2cc(Cl)cnc2OC)c1F` [Example 109, N-(3-(2-amino-7-(methylamino)pyrido[2,3-d]pyrimidin-6-yl)-2-fluorophenyl)-5-chloro-2-methoxypyridine-3-sulfonamide], the IC50 in assay [4] was at most 100 nM; in assay [5], 500 to 1000 nM; in assay [6], at most 100 nM; in assay [7], at most 100 nM; in assay [1] it was at most 100 nM; in assay [3], 100 to 500 nM. In assay [2], the “H929 NS ATF4 ELISA (fold stimulation of ATF4 relative to vehicle)” value is “+++ (“+++” refers to an ATF4 stim greater than 10 fold and less than or equal to 20 fold)”.

For the compound `CNc1ncc2cc(-c3cccc(NS(=O)(=O)c4cc(Cl)cc(CO)c4Cl)c3F)c(NC)nc2n1` [Example 175], the IC50 in assay [4] was at most 100 nM; in assay [5], 100 to 500 nM; in assay [1], at most 100 nM; in assay [3], at most 100 nM. The “H929 NS ATF4 ELISA (fold stimulation of ATF4 relative to vehicle)” value in assay [2] was “+++ (“+++” refers to an ATF4 stim greater than 10 fold and less than or equal to 20 fold)”.

`CNc1ncc2cc(-c3cccc(NS(=O)(=O)c4cc(Cl)cnc4OC)c3C#N)c(C)nc2n1` [Example 95]: the IC50 in assay [4] was 100 to 500 nM; in assay [5] it was 1000 to 10000 nM; in assay [6] it was 100 to 500 nM; in assay [7], at most 100 nM; in assay [1] it was at most 100 nM; in assay [3] it was 100 to 500 nM.

Turning to `CNc1ncc2cc(-c3cc(F)cc(NS(=O)(=O)c4cc(Cl)cnc4OC)c3)c(N)nc2n1` [Example 63], the IC50 in assay [4] is at most 100 nM; in assay [5], 1000 to 10000 nM; in assay [6], at most 100 nM; in assay [7], at most 100 nM; in assay [1] it was at most 100 nM; in assay [3], at most 100 nM.

On to `CNc1ncc2cc(-c3cccc(NS(=O)(=O)c4cc(Cl)cc(CO)c4OC)c3F)c(NC)nc2n1` [Example 179], for which the IC50 is at most 100 nM in assay [4], 100 to 500 nM in assay [5], at most 100 nM in assay [1] and at most 100 nM in assay [3]. In addition, the “H929 NS ATF4 ELISA (fold stimulation of ATF4 relative to vehicle)” value in assay [2] is “+++ (“+++” refers to an ATF4 stim greater than 10 fold and less than or equal to 20 fold)”.

For the compound `CNc1nc2nc(NC(C)=O)ncc2cc1-c1cccc(NS(=O)(=O)c2cc(Cl)cnc2OC)c1F` [Example 158], the IC50 in assay [4] was at most 100 nM; in assay [5] it was 1000 to 10000 nM; in assay [6], at most 100 nM; in assay [7], at most 100 nM; in assay [1], at most 100 nM; in assay [3] it was 100 to 500 nM.

As for `CNc1ncc2cc(-c3cc(NS(=O)(=O)c4cc(Cl)cnc4OC)c(F)cc3C)c(C)nc2n1` [Example 17], the IC50 in assay [4] lay in the range of 1000 to 10000 nM; in assay [5], 1000 to 10000 nM; in assay [6], 1000 to 10000 nM; in assay [7] it was 100 to 500 nM; in assay [1], 500 to 1000 nM; in assay [3], 100 to 500 nM.

With `CNc1ncc2cc(-c3cc(NS(=O)(=O)c4cc(Cl)cnc4OC)cc(F)c3C)c(C)nc2n1` [Example 26], the IC50 in assay [4] is at most 100 nM; in assay [5] it was 1000 to 10000 nM; in assay [6], at most 100 nM; in assay [7], at most 100 nM; in assay [1] it was at most 100 nM; in assay [3], at most 100 nM.

Consider `CNc1ncc2cc(-c3cccc(NS(=O)(=O)c4cc(Cl)ccc4OC)c3F)c(NC)nc2n1` [Example 148], for which the IC50 is at most 100 nM in assay [4]; 1000 to 10000 nM in assay [5]; at most 100 nM in assay [6]; at most 100 nM in assay [7]; at most 100 nM in assay [1]; at most 100 nM in assay [3].

`CNc1cc2nc(C)c(-c3cccc(NS(=O)(=O)c4cc(Cl)cnc4NC)c3F)cc2cn1` [Example 78]: the IC50 in assay [4] is at most 100 nM; in assay [5], 500 to 1000 nM; in assay [6], at most 100 nM; in assay [7] it was at most 100 nM; in assay [1], at most 100 nM; in assay [3] it was at most 100 nM.

On to `CNc1ncc2cc(-c3cccc(NS(=O)(=O)c4cc(Cl)cnc4OC)c3F)c(NCCOC)nc2n1` [Example 100], for which the IC50 is at most 100 nM in assay [4]; 1000 to 10000 nM in assay [5]; at most 100 nM in assay [6]; at most 100 nM in assay [7]; at most 100 nM in assay [1]; 100 to 500 nM in assay [3].

Consider `CNc1nc2nc(NC(C)C)ncc2cc1-c1cccc(NS(=O)(=O)c2cc(Cl)cnc2OC)c1F` [Example 117], for which the IC50 in assay [4] was 100 to 500 nM; in assay [5] it was 1000 to 10000 nM; in assay [6], 100 to 500 nM; in assay [7], 100 to 500 nM; in assay [1], at most 100 nM; in assay [3], 100 to 500 nM.

For the compound `CNc1ncc2cc(-c3cc(NS(=O)(=O)c4cc(Cl)cnc4OC)ccc3C)c(C)nc2n1` [Example 53], the IC50 is at most 100 nM in assay [4]; 1000 to 10000 nM in assay [5]; at most 100 nM in assay [6]; at most 100 nM in assay [7]; at most 100 nM in assay [1]; 100 to 500 nM in assay [3].

As to `COc1ncc(Cl)cc1S(=O)(=O)Nc1cccc(-c2ccc3nc(N)ncc3c2)c1F` [Example 33], the IC50 in assay [4] was 100 to 500 nM; in assay [5], 1000 to 10000 nM; in assay [6], at most 100 nM; in assay [7], at most 100 nM; in assay [1] it was at most 100 nM; in assay [3], at most 100 nM.
